The results in this text go back to US8329711B2, “Pyridone-substituted-dihydropyrazolopyrimidinone derivative” (MSD K.K., priority 2007, dated 2012).

For one assay, the target named is T1, Wee1 kinase (Homo sapiens, UniProt P30291).
T1 construct: made in house; host or cells: Sf9 insect cells (recombinant baculovirus)
The experiment in a line: Wee1 kinase-inhibitory effect (33P-ATP filter assay with GST-tagged Wee1). The conditions noted are these: purified GST-Wee1, Poly(Lys,Tyr) substrate, 10 μM ATP, 30° C. for 30 minutes; read-out: Weel-Inhibitory Effect (IC50). The format is biochemical. The text has this: Pharmacological Test 1 (Wee1 Kinase-Inhibitory Effect)
(1) Purification of Wee1 Kinase:
A cDNA of Wee1 kinase with glutathion-S-transferase (GST) fused at the amino terminal thereof was inserted into a baculovirus expression vector to construct a recombinant baculovirus, with which cells of an insect cell line Sf9 were infected for high expression therein. The infected cells were collected and solubilized, and then the GST-tagged Wee1 kinase protein was adsorbed by a glutathion column, and eluted from the column with glutathion, and the active fraction was desalted in a desalting column to give a purified enzyme.
(2) Determination of Wee1 Kinase Activity:
In determination of the Wee1 kinase activity, a synthetic peptide, Poly(Lys,Tyr) Hydrobromide (Lys:Tyr (4:1)) bought from Sigma was used as the substrate.
The amount of the reaction liquid was 21.1 μL; and the composition of the reaction buffer was 50 mM Tris-HCl buffer (pH 7.4)/10 mM magnesium chloride/1 mM dithiothreitol. The purified Wee1 kinase, 2.5 μg of the substrate peptide, 10 μM of non-labeled adenosine triphosphate (ATP) and 1 μCi of [γ-^33P]-labeled ATP (2500 Ci/mmol or more) were added to it, and reacted at 30° C. for 30 minutes. Next, 10 μL of 350 mM phosphate buffer was added to the reaction system to stop the reaction. The substrate peptide was adsorbed by a P81 paper filter 96-well plate, then washed a few times with 130 mM phosphate buffer, and its radioactivity was counted with a liquid scintillation counter. The [γ-^33P]-labeled ATP was bought from Amersham Bioscience.
To add a test compound to the reaction system, the compound was diluted with dimethyl sulfoxide (DMSO) to prepare a series of dilutions. 1.1 μL of each dilution was added to the reaction system. As a control, 1.1 μL of DMSO was added to the reaction system.

Assay [1] concerns Cdc2 (Cdk1) tyrosine 15 phosphorylation in WiDr cells. The experiment in a line: Cdc2 (Cdk1) tyrosine 15-phosphorylation-inhibitory effect in WiDr cells, gemcitabine-treated (ELISA). The format is cell-based. The conditions noted are these: Homo sapiens, 100 nM gemcitabine 24 hours, then test compound with nocodazole 8 hours, read-out: Cdc2-Y15 Phosphorylation-Inhibitory Effect (WiDr, +gemcitabine) (EC50). The source says: Pharmacological Test 2 (Method of Determining Drug Potency with Cells (Cdc2 (Cdk1) Tyrosine 15-Phosphorylation-Inhibitory Effect))
Fetal bovine serum (FBS) was gotten from Morgate; media RPMI1640 and DMEM were from Invitrogen; camptothecin was from Sigma; gemcitabine was from Nippon Eli Lilly; nocodazole and protease inhibitor cocktail were from Sigma; rabbit anti-Cdc2 antibody and mouse anti-Cdc2 antibody were from Santa Cruz Biotechnology; rabbit anti-tyrosine 15-phosphorylated Cdc2 antibody and horseradish peroxidase-labeled anti-mouse IgG antibody were from Cell Signaling Technology; sure blue reserve TMB peroxidase substrate was from Kirkegaard and Perry Laboratories.
Human non-small cell lung cancer cells (NCI-H1299) and human colon cancer cells (WiDr) were gotten from American Type Culture Collection (ATCC).
In the method of using WiDr cells, the cells were suspended in a medium of 10% FBS-added DMEM, and the cell suspension was applied to a 96-well Nunclondelta-processed plastic plate in an amount of 2000 cells/100 μL/well, in which the cells were incubated overnight in 5% CO2-95% air at 37° C. Gemcitabine was dissolved in PBS, and diluted with a medium of 10% FBS-added DMEM, and then this was applied to the plate on which the cells had been previously sowed, in an amount of 50 μL/well in such a manner that the final concentration of gemcitabine could be 100 nM. Then, the cells were incubated for 24 hours at 37° C. in 5% CO2-95% air. A test compound was stepwise diluted with DMSO, then diluted with 1200 nM nocodazole-containing, 10% FBS-added DMEM, and applied to the plate on which the […] cells had been sowed, in an amount of 50 μL/well. The cells were incubated for 8 hours at 37° C. in 5% CO2-95% air, then the culture was removed, and a cytolytic buffer was added to the plate in an amount of 100 μL/well, shaken at 4° C. for 2 hours, then frozen at −80° C., and thawed to give a cell solution. […] Cdc2 was determined through ELISA as follows: A rabbit anti-Cdc2 antibody solution, which had been diluted 200-fold with 50 mM carbonate-bicarbonate buffer (pH 9.6), was applied to a 96-well maxisorp plastic plate in an amount of 50 μL/well, and statically kept overnight at 4° C. so as to fix the antibody on the plate. […] Then, 1 M hydrochloric acid was added to it in an amount of 100 μL/well to stop the reaction, and this was analyzed through colorimetry. Tyrosine 15-phosphorylated Cdc2 was determined through ELISA as follows: A rabbit anti-tyrosine 15-phosphorylated Cdc2 antibody solution, which had been diluted 100-fold with 50 mM carbonate-bicarbonate buffer (pH 9.6), was applied to a 96-well maxisorp plastic plate in an amount of 50 μL/well, and statically kept overnight at 4° C. so as to fix the antibody on the plate. […]

T1 sequence (P30291 whole entry): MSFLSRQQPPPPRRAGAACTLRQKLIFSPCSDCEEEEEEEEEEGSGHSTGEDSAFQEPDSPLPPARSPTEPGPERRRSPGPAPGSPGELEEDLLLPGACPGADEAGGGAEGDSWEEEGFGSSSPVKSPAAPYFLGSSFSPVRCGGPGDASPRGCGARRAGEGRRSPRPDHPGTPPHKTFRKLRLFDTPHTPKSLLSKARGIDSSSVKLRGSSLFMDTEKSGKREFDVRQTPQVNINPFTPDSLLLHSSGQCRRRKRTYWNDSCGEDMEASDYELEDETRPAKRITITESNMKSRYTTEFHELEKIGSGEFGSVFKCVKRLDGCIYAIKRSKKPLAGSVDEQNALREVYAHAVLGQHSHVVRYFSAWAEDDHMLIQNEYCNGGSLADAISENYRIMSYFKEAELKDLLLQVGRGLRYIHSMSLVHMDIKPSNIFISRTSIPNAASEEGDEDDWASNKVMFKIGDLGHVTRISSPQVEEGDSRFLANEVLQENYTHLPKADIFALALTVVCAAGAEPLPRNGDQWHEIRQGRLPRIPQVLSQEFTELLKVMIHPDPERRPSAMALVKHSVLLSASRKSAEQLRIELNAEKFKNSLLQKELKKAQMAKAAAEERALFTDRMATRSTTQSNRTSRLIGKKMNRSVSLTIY

`C=CCn1c(=O)c2cnc(Nc3ccc(N4CC[C@@H](N(C)C)C4)cc3)nc2n1-c1cccc(-n2ccccc2=O)n1` [Example 2, 6′-[2-allyl-6-({4-[(3R)-3-(dimethylamino)pyrrolidin-1-yl]phenyl}amino)-3-oxo-2,3-dihydro-1H-pyrazolo[3,4-d]pyrimidin-1-yl]-2H-1,2′-bipyridin-2-one]: the IC50 (in general, the midpoint of a concentration-inhibition curve) at Wee1 kinase is 0.018 µM. For the same compound, in assay [1], the EC50 (usually the concentration giving half of the maximal effect) was determined as 0.11 µM.
Take `C=CCn1c(=O)c2cnc(Nc3ccc(N4CC[C@H](N(C)C)C4)cc3)nc2n1-c1cccc(-n2ccccc2=O)n1` [Example 3, 6′-[2-allyl-6-({4-[(3S)-3-(dimethylamino)pyrrolidin-1-yl]phenyl}amino)-3-oxo-2,3-dihydro-1H-pyrazolo[3,4-d]pyrimidin-1-yl]-2H-1,2′-bipyridin-2-one]: on Wee1 kinase, the half-inhibitory concentration (IC50) was found to be 0.016 µM.
Regarding `C=CCn1c(=O)c2cnc(Nc3ccc(N4CCN(C)CC4)cc3)nc2n1-c1cc(F)cc(-n2ccccc2=O)c1` [Example 4, 2-allyl-1-[3-fluoro-5-(2-oxopyridin-1(2H)-yl)phenyl]-6-{[4-(4-methylpiperazin-1-yl)phenyl]amino}-1,2-dihydro-3H-pyrazolo[3,4-d]pyrimidin-3-one], the IC50 on Wee1 kinase was determined as 0.0072 µM. In addition, the EC50 in assay [1] is 0.086 µM.
For `C=CCn1c(=O)c2cnc(Nc3ccc(C4CCN(C)CC4)cc3)nc2n1-c1cccc(-n2ccccc2=O)c1` [Example 8] the same measures were 0.024 µM and 0.17 µM.
With `C=CCn1c(=O)c2cnc(Nc3ccc(C4CCN(C)CC4)cc3)nc2n1-c1cccc(-n2ccccc2=O)n1` [Example 9, 6′-(2-Allyl-6-{[4-(1-methylpiperidin-4-yl)phenyl]amino}-3-oxo-2,3-dihydro-1H-pyrazolo[3,4-d]pyrimidin-1-yl)-2H-1,2′-bipyridin-2-one], on Wee1 kinase, the IC50 worked out at 0.011 µM.
Regarding `C=CCn1c(=O)c2cnc(Nc3ccc(N4CCN(C)CC4)c(C)c3)nc2n1-c1cccc(-n2ccccc2=O)n1` [Example 11, 6′-(2-Allyl-6-{[3-methyl-4-(4-methylpiperazin-1-yl)phenyl]amino}-3-oxo-2,3-dihydro-1H-pyrazolo[3,4-d]pyrimidin-1-yl)-2H-1,2′-bipyridin-2-one], the IC50 on Wee1 kinase is 0.01 µM. Further, the EC50 in assay [1] came out at 0.092 µM.
`C=CCn1c(=O)c2cnc(Nc3ccc(N4CC(F)(F)C4)cc3)nc2n1-c1cccc(-n2ccccc2=O)n1` [Example 17, 6′-(2-Allyl-6-{[4-(3,3-difluoroazetidin-1-yl)phenyl]amino}-3-oxo-2,3-dihydro-1H-pyrazolo[3,4-d]pyrimidin-1-yl)-2H-1,2′-bipyridin-2-one]: the IC50 on Wee1 kinase amounted to 0.0069 µM.
Consider `C=CCn1c(=O)c2cnc(Nc3cccc(C4CCN(C)CC4)c3)nc2n1-c1cccc(-n2ccccc2=O)n1` [Example 27, 6′-(2-Allyl-6-{[3-(1-methylpiperizin-4-yl)phenyl]amino}-3-oxo-2,3-dihydro-1H-pyrazolo[3,4-d]pyrimidin-1-yl)-2H-1,2′-bipyridin-2-one], for which, at Wee1 kinase, the half-maximal inhibitory concentration (IC50) was 0.0069 µM.
For the compound `C=CCn1c(=O)c2cnc(Nc3ccc(OC)c(CO)c3)nc2n1-c1cccc(-n2ccccc2=O)n1` [Example 29, 6′-(2-Allyl-6-{[3-(hydroxymethyl)-4-methoxyphenyl]amino}-3-oxo-2,3-dihydro-1H-pyrazolo[3,4-d]pyrimidin-1-yl)-2H-1,2′-bipyridin-2-one], at Wee1 kinase, the IC50 came out at 0.0065 µM.
Turning to `CN1Cc2cc(Nc3ncc4c(=O)n(C)n(-c5cccc(-n6ccccc6=O)n5)c4n3)ccc2C2(CC2)C1` [Example 38, 6′-{2-Methyl-6-[(2′-methyl-2′,3′-dihydro-1′H-spiro[cyclopropane-1,4′-isoquinolin]-7′-yl)amino]-3-oxo-2,3-dihydro-1H-pyrazolo[3,4-d]pyrimidin-1-yl}-2H-1,2′-bipyridin-2-one], the IC50 at Wee1 kinase was 0.0126 µM.
Take `CC(C)n1c(=O)c2cnc(Nc3ccc4c(c3)CN(C)CC43CC3)nc2n1-c1cccc(-n2ccccc2=O)n1` [Example 39, 6′-{2-Isopropyl-6-[(2′-methyl-2′,3′-dihydro-1′H-spiro[cyclopropane-1,4′-isoquinolin]-7′-yl)amino)-3-oxo-2,3-dihydro-1H-pyrazolo[3,4-d]pyrimidin-1-yl]-2H-1,2′-bipyridin-2-one]: the IC50 at Wee1 kinase came to 0.0206 µM.
The same measure, in the same setting: in the case of `C#CCn1c(=O)c2cnc(Nc3ccc4c(c3)CN(C)CC4)nc2n1-c1cccc(-n2ccccc2=O)n1` [Example 42, 6′-{6-[(2-Methyl-1,2,3,4-tetrahydroisoquinolin-7-yl)amino]-3-oxo-2-(2-propynyl)-2,3-dihydro-1H-pyrazolo[3,4-d]pyrimidin-1-yl}-2H-1,2′-bipyridin-2-one] it was 0.0044 µM.
